Experimental findings from PMC11359702, “Synthesis and Biochemical Evaluation of Ethanoanthracenes and Related Compounds: Antiproliferative and Pro-Apoptotic Effects in Chronic Lymphocytic Leukemia (CLL)” (Pharmaceuticals, 2024) are described below.

One experiment concerns SF295. The experiment in a line: NCI-60 five-dose assay. Format: cell-based. The note with it: Homo sapiens, SF-295. The method, then: (§1) A number of our most promising compounds identified through preliminary cell viability testing (23c, 23d, 23f, 23h, 23l, 23m, 23n, 23o, 24f, 24l, 25n and 26n) were selected for NCI drug screening in the 60-cell-line panel. The panel includes nine subcategories based on cancer tissue types, which include leukemia, ovarian, central nervous system, breast, lung, prostate, skin, renal and colon cancer. The compounds were initially assessed in a one-dose assay at a fixed treatment concentration of 10 µM. The compounds selected for further investigation were progressed to a five-dose assay across the concentration ranges of 0.01, 0.1, 1, 10 and 100 µM [72]. The endpoints assessed in the screening protocol were GI50, TGI and LC50 [72].

The subject of the next experiment is T-47D. The experiment in a line: NCI-60 five-dose assay. The note with it: Homo sapiens, T47D. Format: cell-based. The method, then: as §1

Structures are written as SMILES.

Turning to `O=C(C=CC12c3ccccc3C(c3ccccc31)C1C(=O)N(c3ccc(Cl)cc3)C(=O)C12)c1ccccn1` (centres unmarked) [Compound 25n, (E)-13-(4-Chlorophenyl)-9-(3-oxo-3-(pyridin-2-yl)prop-1-en-1-yl)-9,10-dihydro-9,10-[3,4]epipyrroloanthracene-12,14-dione], the GI50 with SF295 was 379 nM; with T-47D, 312 nM.
